“And” between values parts separate entries of the source, which are not always exact repeats. Identical values can stand only once.
Tests used:
[1] = biological target: CAMK2g (Homo sapiens, UniProt Q13555); assay: biochemical; conditions: read-out: % enzyme activity, 1 μM; Run 1, Run 2
[2] = biological target: PIM1 (Homo sapiens, UniProt P11309); conditions: 1 μM; Run 1, Run 2
[3] = biological target: TRKA (Homo sapiens, UniProt P04629); conditions: 1 μM; Run 1, Run 2
[4] = system: ALK3/BMPR1A
[5] = biological target: MARK2/PAR-1Ba (Homo sapiens, UniProt Q7KZI7); conditions: 1 μM; Run 1, Run 2
Sequence of MARK2/PAR-1Ba (Q7KZI7 whole entry): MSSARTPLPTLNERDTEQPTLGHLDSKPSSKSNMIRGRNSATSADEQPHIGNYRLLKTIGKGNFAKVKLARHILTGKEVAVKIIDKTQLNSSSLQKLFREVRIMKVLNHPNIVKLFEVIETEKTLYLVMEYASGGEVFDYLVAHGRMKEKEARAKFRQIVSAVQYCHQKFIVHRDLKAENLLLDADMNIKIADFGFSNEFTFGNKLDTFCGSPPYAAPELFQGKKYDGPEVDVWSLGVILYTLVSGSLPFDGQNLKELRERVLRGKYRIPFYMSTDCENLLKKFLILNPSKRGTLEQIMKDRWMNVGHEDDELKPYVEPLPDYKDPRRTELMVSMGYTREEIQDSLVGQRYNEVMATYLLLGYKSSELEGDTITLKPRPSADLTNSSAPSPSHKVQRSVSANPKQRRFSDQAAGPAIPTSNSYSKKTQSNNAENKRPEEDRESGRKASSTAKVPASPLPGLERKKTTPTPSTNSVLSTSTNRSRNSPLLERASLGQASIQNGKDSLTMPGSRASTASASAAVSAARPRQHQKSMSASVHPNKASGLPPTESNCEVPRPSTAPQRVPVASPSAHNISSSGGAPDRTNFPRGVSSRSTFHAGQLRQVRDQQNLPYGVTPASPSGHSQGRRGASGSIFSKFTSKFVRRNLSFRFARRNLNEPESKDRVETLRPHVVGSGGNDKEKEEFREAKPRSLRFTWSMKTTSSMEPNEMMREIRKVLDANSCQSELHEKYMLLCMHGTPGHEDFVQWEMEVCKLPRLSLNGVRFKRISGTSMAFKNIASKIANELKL

[6] = biological target: CDK2/Cyclin A1 (Homo sapiens, UniProt P24941); assay: biochemical; conditions: read-out: % enzyme activity, 1 μM; Run 1, Run 2
[7] = biological target: EPHA2 (Homo sapiens, UniProt P29317); assay: biochemical; conditions: read-out: % enzyme activity, 1 μM; Run 1, Run 2
Sequence of EPHA2 (P29317 24-976): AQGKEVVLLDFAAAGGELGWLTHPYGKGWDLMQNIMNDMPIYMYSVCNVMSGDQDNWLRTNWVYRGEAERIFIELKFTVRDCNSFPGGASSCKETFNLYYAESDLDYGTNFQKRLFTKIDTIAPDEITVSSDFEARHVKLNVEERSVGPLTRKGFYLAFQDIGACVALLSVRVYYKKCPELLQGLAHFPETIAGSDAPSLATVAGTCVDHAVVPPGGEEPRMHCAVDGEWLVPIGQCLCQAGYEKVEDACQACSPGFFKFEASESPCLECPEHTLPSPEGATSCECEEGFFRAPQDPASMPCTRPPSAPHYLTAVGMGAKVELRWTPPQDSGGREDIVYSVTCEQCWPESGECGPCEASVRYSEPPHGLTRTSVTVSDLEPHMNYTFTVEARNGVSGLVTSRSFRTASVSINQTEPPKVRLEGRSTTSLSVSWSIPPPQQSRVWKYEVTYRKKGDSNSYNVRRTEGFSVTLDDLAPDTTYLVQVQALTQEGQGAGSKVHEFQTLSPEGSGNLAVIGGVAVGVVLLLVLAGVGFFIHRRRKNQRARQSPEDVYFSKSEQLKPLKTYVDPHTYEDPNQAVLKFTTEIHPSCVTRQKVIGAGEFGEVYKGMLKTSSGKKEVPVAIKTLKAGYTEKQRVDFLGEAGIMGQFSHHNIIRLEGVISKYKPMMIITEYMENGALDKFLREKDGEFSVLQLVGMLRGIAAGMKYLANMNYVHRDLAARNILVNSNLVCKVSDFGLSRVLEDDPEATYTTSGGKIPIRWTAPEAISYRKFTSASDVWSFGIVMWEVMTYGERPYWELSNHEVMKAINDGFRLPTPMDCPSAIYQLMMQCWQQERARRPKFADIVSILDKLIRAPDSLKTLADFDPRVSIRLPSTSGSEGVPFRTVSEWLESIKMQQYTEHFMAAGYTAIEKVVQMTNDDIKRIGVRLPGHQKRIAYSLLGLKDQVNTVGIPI

[8] = biological target: TTBK1 (Homo sapiens, UniProt Q5TCY1); conditions: 1 μM; Run 1, Run 2
Sequence of TTBK1 (Q5TCY1 whole entry): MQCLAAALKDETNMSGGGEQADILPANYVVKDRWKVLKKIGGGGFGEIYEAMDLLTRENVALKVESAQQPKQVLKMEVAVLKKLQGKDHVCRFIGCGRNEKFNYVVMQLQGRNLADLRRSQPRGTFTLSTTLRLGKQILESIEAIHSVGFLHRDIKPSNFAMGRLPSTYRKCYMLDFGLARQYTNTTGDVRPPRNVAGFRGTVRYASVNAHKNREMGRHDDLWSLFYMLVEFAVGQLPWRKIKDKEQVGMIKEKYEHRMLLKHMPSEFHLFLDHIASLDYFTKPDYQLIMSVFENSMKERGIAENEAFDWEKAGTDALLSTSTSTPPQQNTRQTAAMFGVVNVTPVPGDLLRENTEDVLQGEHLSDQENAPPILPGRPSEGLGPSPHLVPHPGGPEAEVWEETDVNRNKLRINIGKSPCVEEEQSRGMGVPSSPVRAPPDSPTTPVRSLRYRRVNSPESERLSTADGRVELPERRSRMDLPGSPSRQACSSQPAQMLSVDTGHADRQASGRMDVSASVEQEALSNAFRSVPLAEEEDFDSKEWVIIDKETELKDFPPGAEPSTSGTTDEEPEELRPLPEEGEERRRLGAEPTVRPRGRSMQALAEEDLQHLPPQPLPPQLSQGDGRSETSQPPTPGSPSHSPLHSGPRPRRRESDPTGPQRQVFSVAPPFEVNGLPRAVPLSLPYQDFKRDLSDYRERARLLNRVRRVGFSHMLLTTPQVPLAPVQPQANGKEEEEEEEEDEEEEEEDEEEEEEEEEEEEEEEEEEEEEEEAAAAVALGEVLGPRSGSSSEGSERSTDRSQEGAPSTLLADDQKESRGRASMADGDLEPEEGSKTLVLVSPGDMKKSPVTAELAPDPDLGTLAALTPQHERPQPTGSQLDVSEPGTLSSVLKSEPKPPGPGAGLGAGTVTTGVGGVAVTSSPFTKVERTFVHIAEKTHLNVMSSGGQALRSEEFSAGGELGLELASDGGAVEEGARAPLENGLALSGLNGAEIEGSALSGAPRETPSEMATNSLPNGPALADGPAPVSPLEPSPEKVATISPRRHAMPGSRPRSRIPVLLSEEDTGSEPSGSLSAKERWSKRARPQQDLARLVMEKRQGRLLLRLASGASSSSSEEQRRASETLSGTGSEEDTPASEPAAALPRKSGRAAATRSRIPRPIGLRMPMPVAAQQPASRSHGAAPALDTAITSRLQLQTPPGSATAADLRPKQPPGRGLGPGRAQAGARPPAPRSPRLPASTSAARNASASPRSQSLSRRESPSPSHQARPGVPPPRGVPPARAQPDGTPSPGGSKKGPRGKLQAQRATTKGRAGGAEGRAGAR

[9] = biological target: T1, EPHA3 (Homo sapiens, UniProt P29320); conditions: 1 μM; Run 1, Run 2
T1 sequence (P29320 21-983): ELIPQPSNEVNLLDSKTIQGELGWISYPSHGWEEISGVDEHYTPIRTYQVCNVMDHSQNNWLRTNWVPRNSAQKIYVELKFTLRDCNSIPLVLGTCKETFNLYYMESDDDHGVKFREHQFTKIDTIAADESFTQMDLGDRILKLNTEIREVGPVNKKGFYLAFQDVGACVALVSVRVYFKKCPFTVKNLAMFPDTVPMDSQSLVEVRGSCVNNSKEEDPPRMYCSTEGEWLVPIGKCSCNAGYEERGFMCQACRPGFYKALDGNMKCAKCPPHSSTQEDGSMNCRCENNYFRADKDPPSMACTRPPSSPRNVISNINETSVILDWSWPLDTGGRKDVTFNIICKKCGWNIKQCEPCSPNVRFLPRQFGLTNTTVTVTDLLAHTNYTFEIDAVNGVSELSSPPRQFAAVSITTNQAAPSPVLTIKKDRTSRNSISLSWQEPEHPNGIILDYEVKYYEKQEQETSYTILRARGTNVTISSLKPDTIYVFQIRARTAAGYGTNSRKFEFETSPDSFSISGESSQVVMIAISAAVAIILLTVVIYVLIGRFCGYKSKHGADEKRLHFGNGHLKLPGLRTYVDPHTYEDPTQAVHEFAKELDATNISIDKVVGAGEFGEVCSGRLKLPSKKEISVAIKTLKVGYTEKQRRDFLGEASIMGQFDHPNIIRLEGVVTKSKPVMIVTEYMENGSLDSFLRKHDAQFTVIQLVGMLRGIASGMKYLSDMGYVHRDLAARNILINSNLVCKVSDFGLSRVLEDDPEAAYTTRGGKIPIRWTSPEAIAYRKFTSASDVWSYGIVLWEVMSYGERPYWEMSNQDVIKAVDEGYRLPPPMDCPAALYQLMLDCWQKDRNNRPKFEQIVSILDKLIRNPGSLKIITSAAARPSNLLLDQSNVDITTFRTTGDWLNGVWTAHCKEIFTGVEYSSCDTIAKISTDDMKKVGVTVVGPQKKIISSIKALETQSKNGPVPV

[10] = biological target: T2, TAOK1 (Homo sapiens, UniProt Q7L7X3); assay: 375-member kinase panel; assay type: biochemical; conditions: Run 1, Run 2; for % enzyme activity: 1 μM; for remaining activity at 1 µM: read-out: % enzyme activity, 1 μM
T2 construct: purchased Reaction Biology Corporation
T2 sequence (Q7L7X3 1-1001): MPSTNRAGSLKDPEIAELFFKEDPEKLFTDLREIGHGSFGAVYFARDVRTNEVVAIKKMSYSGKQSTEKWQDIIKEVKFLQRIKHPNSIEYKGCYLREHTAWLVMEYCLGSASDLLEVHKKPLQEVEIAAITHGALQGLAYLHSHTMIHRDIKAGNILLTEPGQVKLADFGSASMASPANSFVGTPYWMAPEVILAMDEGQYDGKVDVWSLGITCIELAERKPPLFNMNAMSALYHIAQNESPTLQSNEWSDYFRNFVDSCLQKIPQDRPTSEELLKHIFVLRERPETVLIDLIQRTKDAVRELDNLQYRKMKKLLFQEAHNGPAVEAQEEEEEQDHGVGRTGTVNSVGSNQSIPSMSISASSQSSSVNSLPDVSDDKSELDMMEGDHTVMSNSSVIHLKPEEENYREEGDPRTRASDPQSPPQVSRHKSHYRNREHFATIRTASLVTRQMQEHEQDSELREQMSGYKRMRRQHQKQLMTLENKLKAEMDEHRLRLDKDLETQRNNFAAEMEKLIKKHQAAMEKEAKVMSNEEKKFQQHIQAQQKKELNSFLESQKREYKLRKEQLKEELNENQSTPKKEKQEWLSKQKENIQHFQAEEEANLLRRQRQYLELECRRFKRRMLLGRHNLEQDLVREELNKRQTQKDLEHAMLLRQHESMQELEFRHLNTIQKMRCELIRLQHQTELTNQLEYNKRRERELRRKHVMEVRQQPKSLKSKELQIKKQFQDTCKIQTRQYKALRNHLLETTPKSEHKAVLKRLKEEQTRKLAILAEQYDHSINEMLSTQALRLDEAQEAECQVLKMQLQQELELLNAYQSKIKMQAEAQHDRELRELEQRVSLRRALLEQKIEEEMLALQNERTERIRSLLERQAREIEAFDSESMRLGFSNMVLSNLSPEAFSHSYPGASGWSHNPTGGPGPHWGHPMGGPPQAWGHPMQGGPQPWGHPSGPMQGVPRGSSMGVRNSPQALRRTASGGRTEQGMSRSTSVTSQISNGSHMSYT

Sequence of TRKA (P04629 33-796): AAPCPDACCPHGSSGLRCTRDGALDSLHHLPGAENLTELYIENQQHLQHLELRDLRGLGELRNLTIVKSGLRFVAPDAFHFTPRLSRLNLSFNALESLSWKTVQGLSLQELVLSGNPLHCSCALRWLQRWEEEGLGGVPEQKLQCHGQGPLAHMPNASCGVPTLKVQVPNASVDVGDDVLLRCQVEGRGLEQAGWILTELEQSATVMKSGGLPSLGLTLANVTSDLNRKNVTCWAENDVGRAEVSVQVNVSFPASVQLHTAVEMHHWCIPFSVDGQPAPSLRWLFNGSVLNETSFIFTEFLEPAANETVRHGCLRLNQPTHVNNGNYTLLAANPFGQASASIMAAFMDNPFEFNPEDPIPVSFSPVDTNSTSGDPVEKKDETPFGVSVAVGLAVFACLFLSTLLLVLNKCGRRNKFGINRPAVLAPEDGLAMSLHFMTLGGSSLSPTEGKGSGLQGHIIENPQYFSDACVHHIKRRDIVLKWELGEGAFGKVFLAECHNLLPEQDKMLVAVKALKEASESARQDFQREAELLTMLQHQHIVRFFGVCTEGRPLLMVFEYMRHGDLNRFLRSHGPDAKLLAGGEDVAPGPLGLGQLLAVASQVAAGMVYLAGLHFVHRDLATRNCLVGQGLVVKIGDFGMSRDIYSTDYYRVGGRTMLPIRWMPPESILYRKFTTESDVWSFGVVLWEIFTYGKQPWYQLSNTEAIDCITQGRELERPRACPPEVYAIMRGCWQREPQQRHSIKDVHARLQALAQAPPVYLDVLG
Sequence of PIM1 (P11309 whole entry): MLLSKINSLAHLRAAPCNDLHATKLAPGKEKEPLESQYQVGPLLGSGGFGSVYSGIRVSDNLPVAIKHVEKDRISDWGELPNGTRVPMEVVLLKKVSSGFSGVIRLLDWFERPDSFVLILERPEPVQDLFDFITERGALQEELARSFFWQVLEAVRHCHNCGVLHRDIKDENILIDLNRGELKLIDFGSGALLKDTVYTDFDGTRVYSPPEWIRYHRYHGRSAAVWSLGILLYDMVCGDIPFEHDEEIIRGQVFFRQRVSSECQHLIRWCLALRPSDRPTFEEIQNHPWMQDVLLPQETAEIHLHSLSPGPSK
Sequence of CAMK2g (Q13555 whole entry): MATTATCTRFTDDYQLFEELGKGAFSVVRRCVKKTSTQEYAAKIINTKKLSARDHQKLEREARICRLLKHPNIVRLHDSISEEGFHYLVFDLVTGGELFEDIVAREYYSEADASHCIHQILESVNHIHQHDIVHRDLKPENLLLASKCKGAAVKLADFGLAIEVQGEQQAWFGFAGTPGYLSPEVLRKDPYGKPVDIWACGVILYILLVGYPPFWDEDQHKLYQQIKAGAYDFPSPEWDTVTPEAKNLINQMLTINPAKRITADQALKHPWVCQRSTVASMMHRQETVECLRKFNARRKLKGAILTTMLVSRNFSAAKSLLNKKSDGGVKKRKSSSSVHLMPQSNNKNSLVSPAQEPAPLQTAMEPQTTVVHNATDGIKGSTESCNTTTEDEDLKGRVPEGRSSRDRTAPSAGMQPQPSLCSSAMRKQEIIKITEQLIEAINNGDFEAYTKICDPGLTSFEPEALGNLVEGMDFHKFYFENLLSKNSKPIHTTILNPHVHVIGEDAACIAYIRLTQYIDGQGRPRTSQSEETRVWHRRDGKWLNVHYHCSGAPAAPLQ

SMILES | remaining activity at 1 µM [1] [%] | % enzyme activity [2] [%] | % enzyme activity [3] [%] | % enzyme activity at 1 μM [4] | % enzyme activity [5] [%] | remaining activity at 1 µM [6] [%] | remaining activity at 1 µM [7] [%] | % enzyme activity [8] [%] | % enzyme activity [9] [%] | % enzyme activity [10] [%] | remaining activity at 1 µM [10] [%]
COc1cc(-c2cncc(-c3ccc(N4CCN(C)CC4)cc3)c2C)cc(F)c1C(N)=O [Compound 26a, 2-Fluoro-6-methoxy-4-(4-methyl-5-(4-(4-methylpiperazin-1-yl)phenyl)pyridin-3-yl)benzamide] | 103 | 97.92 | 90.11 | 40.2% and 38.4% | 91.66 | 99.9 | 103 | 96.78 | 94.70 | 60.19 | 60.3
COc1cc(-c2cncc(-c3ccc(N4C[C@@H](C)N(C)[C@@H](C)C4)cc3)c2C)cc(F)c1C(N)=O [Compound 26c, 2-Fluoro-6-methoxy-4-(4-methyl-5-(4-((3R,5S)-3,4,5-trimethylpiperazin-1-yl)phenyl)pyridin-3-yl)benzamide] | 110 | 92.25 | 94.00 | 50.5% and 50% | 103.03 | 98.2 | 108 | 98.52 | 98.11 | 60.59 | 62.2
